The values that follow come from the supplement of paper PMC4862054.

Some results are limits rather than exact numbers.

The test system of assay [1] is HCC1143. The settings on record: 72 h. In short, it runs like this:
(§1)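 EC50 was fitted from dose-response curves and censored at the highest concentration tested. To build those curves, breast cancer cell lines (20 µl suspension) were seeded into 384-well plates containing compound at 5 concentrations in 10-fold steps over a compound-specific 10,000-fold range and incubated for 72 h. Readouts were CellTox Green fluorescence (485/520 nm) for cell death and then CellTiter-Glo luminescence for viability, with each plate normalised to 0.1 % DMSO and a positive kill control.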

For assay [2], the system named is BT-474. The note with it: 72 h. In short, it runs like this: as §1
The subject of assay [3] is CAL-51. The settings on record: 72 h. In short, it runs like this:
as §1

Another assay has as its system MDA-MB-436. The settings on record: 72 h. In short, it runs like this: as §1
For assay [4], the system named is DU-4475. The settings on record: 72 h. Summed up:
as §1

Assay [5] concerns BT-549. The settings on record: 72 h. Summed up: as §1
For assay [6], the system named is CAL-148. The settings on record: 72 h. In short, it runs like this:
as §1

Assay [7] relates to HCC1937. The note with it: 72 h. Summed up: as §1
Assay [8] relates to Hs578T. The note with it: 72 h. Summed up: as §1
The test system of assay [9] is MDA-MB-231. The settings on record: 72 h. In short, it runs like this: as §1
The subject of assay [10] is MFM-223. The settings on record: 72 h. In short, it runs like this: as §1
Assay [11] relates to HDQ-P1. The settings on record: 72 h. Summed up:
as §1

Assay [12] concerns BT-474. The settings on record: 72 h. The protocol: (§2)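 Drug sensitivity and resistance testing (DSRT) of breast cancer cell lines in 384-well plates, 5 concentrations in 10-fold dilutions over a compound-specific 10,000-fold range. After 72 h, cytotoxicity was read by CellTox Green fluorescence and viability by CellTiter-Glo luminescence (multiplexed), normalised to DMSO and benzethonium chloride controls. EC50 is the inflection point of the fitted dose-response curve (bottom asymptote free, so it can be relative for partial curves) and is censored at the highest tested concentration. Rows with DSS 0 (no meaningful response) were excluded.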
The source holds these as a separate data set.

Assay [13] has as its system CAL-51. The settings on record: 72 h. The protocol:
as §2
The source holds these as a separate data set.

Assay [14] has as its system BT-549. The note with it: 72 h. The protocol: as §2
The source holds these as a separate data set.

For assay [15], the system named is CAL-148. The note with it: 72 h. As to the method: as §2
The source holds these as a separate data set.

Assay [16] has as its system HCC1937. The settings on record: 72 h. As to the method:
as §2
This is another data set of the same source.

Assay [17] relates to MDA-MB-231. The note with it: 72 h. The protocol:
as §2
This is another data set of the same source.

Assay [18] deals with MDA-MB-468. The settings on record: 72 h. The protocol: as §2
Assay [19] relates to MDA-MB-453. The settings on record: 72 h. Summed up: (§3)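 Compound dissolved in 5 µl medium was placed in 384-well plates before 20 µl of breast cancer cell suspension was added, and the plates were incubated for 72 h. Cells then received 2.5 µl CellTiter-Blue for 2 h at 37 °C, and fluorescence was read at 560/590 nm. EC50 values come from percent-inhibition dose-response fits that were censored at the highest concentration, with plates normalised to vehicle and a positive kill control and rows with a zero drug sensitivity score excluded.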

Assay [20] concerns DU-4475. The note with it: 72 h. Summed up: as §3
This is another data set of the same source.

Assay [21] deals with CAL-85-1. The settings on record: 72 h. In short, it runs like this: as §3
Assay [22] has as its system HDQ-P1. The note with it: 72 h. In short, it runs like this:
as §3
This is another data set of the same source.

In assay [23] the test system is MCF-10A. The settings on record: 72 h. Summed up: as §1
Assay [24] relates to HCC1599. The settings on record: 72 h. In short, it runs like this: as §1
Assay [25] has as its system MDA-MB-453. The note with it: 72 h. In short, it runs like this: as §1
This is another data set of the same source.

Assay [26] deals with CAL-85-1. The note with it: 72 h. In short, it runs like this: as §1
The source holds these as a separate data set.

Assay [27] concerns SK-BR-3. The settings on record: 72 h. Summed up:
as §1

Assay [28] relates to MCF-10A. The note with it: 72 h. The protocol: as §2
The source holds these as a separate data set.

In assay [29] the test system is CAL-85-1. The note with it: 72 h. The protocol: as §2
The source holds these as a separate data set.

The subject of assay [30] is Hs578T. The settings on record: 72 h. As to the method:
as §2
This is another data set of the same source.

Assay [31] deals with MFM-223. The note with it: 72 h. As to the method: as §2
The source holds these as a separate data set.

The subject of assay [32] is HDQ-P1. The settings on record: 72 h. As to the method: as §2
This is another data set of the same source.

The subject of assay [33] is HCC1599. The note with it: 72 h. In short, it runs like this:
as §3
This is another data set of the same source.

The test system of assay [34] is HCC1143. The note with it: 72 h. Summed up:
as §3
The source holds these as a separate data set.

For assay [35], the system named is BT-474. The settings on record: 72 h. Summed up:
as §3
The source holds these as a separate data set.

In assay [36] the test system is Hs578T. The settings on record: 72 h. In short, it runs like this: as §3
The source holds these as a separate data set.

Assay [37] relates to MDA-MB-231. The note with it: 72 h. Summed up:
as §3
This is another data set of the same source.

Assay [38] deals with MDA-MB-468. The settings on record: 72 h. Summed up: as §3
The source holds these as a separate data set.

Assay [39] relates to MFM-223. The settings on record: 72 h. Summed up:
as §3
The source holds these as a separate data set.

Assay [40] relates to HCC1599. The assay can be described thus: normalised viability (% of control), CellTiter-Blue; higher = more viable cells (about 100 = DMSO control). The settings on record: incubation time: 72 h. Summed up:
(§4)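 Vehicle (100) and a positive kill control (0) anchored the normalisation of each plate, and Z'-factor was used for quality control. Breast cancer cell lines in 20 µl suspension were incubated 72 h over compound in 5 µl medium in 384-well plates, followed by CellTiter-Blue at 560/590 nm. The value is normalised viability at a single listed concentration of the series.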

The test system of assay [41] is SK-BR-3. Described as above. The note with it: incubation time: 72 h. In short, it runs like this:
as §4

The test system of assay [42] is CAL-120. The assay is described as above. The settings on record: incubation time: 72 h. Summed up: as §4
Assay [43] concerns CAL-120. The note with it: 72 h. The protocol:
as §2

In the case of `COc1cc(Nc2ncc3c(n2)-c2ccc(Cl)cc2C(c2c(F)cccc2OC)=NC3)ccc1C(=O)O` [Alisertib], the “EC50, CellTiter-Glo” value was found to be 0.0416 µM in the assay on HCC1143 [1]; 0.0761 µM with BT-474 [2]; 0.0764 µM in the assay on CAL-51 [3]; 0.027 µM in the assay with MDA-MB-436; 0.0246 µM with DU-4475 [4]; 0.177 µM in the assay on BT-549 [5]. Further, the “EC50, CellTiter-Glo” value was found to be 0.659 µM in the assay with CAL-148 [6]; 1.74 µM in the assay on HCC1937 [7]; 0.0779 µM in the assay with Hs578T [8]; 0.99 µM in the assay with MDA-MB-231 [9]; 0.615 µM with MFM-223 [10]; 8.41 µM with HDQ-P1 [11]. Also, the “EC50, CellTox Green” value was 8.37 µM in the assay with BT-474 [12]; 0.0182 µM in the assay on CAL-51 [13]; 0.756 µM in the assay with BT-549 [14]; 0.156 µM with CAL-148 [15]; 7.46 µM in the assay on HCC1937 [16]; 0.0148 µM with MDA-MB-231 [17]. The “EC50, CellTox Green” value with MDA-MB-468 [18] was 0.0155 µM.

For `CN1CC[C@H](c2c(O)cc(O)c3c(=O)cc(-c4ccccc4Cl)oc23)[C@H](O)C1` [Alvocidib], the “EC50, CellTiter-Blue viability” value worked out at 0.165 µM with MDA-MB-453 [19]; 0.141 µM in the assay with DU-4475 [20]; 0.153 µM in the assay on CAL-85-1 [21]; 0.163 µM in the assay with HDQ-P1 [22]; 0.165 µM with HCC1599 [33]; 0.127 µM in the assay on HCC1143 [34]. In addition, the “EC50, CellTiter-Blue viability” value is 0.278 µM with BT-474 [35]; 0.0936 µM in the assay with Hs578T [36]; 0.19 µM in the assay on MDA-MB-231 [37]; 0.278 µM in the assay on MDA-MB-468 [38]; 0.174 µM with MFM-223 [39]. The “EC50, CellTiter-Glo” value in the assay on MCF-10A [23] is 0.368 µM; with HCC1599 [24], 0.417 µM; with MDA-MB-453 [25], 0.548 µM; with HCC1143 [1], 0.359 µM; in the assay with BT-474 [2], 0.183 µM; in the assay on CAL-51 [3], 0.167 µM. Moreover, the “EC50, CellTiter-Glo” value in the assay with MDA-MB-436 is 0.143 µM; with DU-4475 [4] it was 0.282 µM; in the assay on BT-549 [5], 0.294 µM; in the assay on CAL-148 [6], 0.243 µM; with CAL-85-1 [26] it was 0.372 µM; in the assay on HCC1937 [7], 0.357 µM. Besides, the “EC50, CellTiter-Glo” value in the assay on SK-BR-3 [27] was 0.218 µM; in the assay on Hs578T [8], 0.376 µM; in the assay on MDA-MB-231 [9], 0.242 µM; in the assay on MFM-223 [10], 0.335 µM; with HDQ-P1 [11], 0.183 µM. Moreover, the “EC50, CellTox Green” value in the assay on MCF-10A [28] was 0.42 µM; with BT-474 [12], over 10 µM; with CAL-51 [13], 0.806 µM; with BT-549 [14], 1.01 µM; in the assay on CAL-85-1 [29], 0.473 µM; in the assay with Hs578T [30], 1.79 µM. Besides, the “EC50, CellTox Green” value is 0.135 µM in the assay on MDA-MB-231 [17], 0.558 µM in the assay with MFM-223 [31] and 0.167 µM with HDQ-P1 [32]. Also, the normalised viability is 124% in the assay on HCC1599 [40] (10 nM); 19.6% in the assay on HCC1599 [40] (1000 nM); 21.9% in the assay with HCC1599 [40] (10000 nM); 88.5% with SK-BR-3 [41] (10 nM); 4.29% with SK-BR-3 [41] (1000 nM); 5.99% with SK-BR-3 [41] (10000 nM). The normalised viability was 67.7% with CAL-120 [42] (10 nM), 10.7% in the assay on CAL-120 [42] (1000 nM) and 11.1% with CAL-120 [42] (10000 nM).

Take `CCN1CCN(c2ccc(Nc3cc(N(C)C(=O)Nc4c(Cl)c(OC)cc(OC)c4Cl)ncn3)cc2)CC1` [NVP-BGJ398]: the results for the “EC50, CellTiter-Glo” value with Hs578T [8] and in the assay on MFM-223 [10] were over 1 µM and 0.0505 µM, respectively. Further, the “EC50, CellTox Green” value in the assay on CAL-120 [43] is over 1 µM.
